Source: ChEMBL document CHEMBL1201862, “PubChem BioAssay data set” (2004)
Active and inactive are the calls of the source. Rule as the data show it, for most assays here: actives have a measured EC50 and inactives only a lower limit.

Experiments:
[1] = biological target: T1, Microphthalmia-associated transcription factor (Homo sapiens, UniProt O75030); assay: TRPM1 promoter luciferase signal decrease, dose response, MITF inhibitor project, cell-based, SK-MEL-5, cherry-picked, set 3 (AID 493073); assay type: functional
T1 sequence (O75030 whole entry): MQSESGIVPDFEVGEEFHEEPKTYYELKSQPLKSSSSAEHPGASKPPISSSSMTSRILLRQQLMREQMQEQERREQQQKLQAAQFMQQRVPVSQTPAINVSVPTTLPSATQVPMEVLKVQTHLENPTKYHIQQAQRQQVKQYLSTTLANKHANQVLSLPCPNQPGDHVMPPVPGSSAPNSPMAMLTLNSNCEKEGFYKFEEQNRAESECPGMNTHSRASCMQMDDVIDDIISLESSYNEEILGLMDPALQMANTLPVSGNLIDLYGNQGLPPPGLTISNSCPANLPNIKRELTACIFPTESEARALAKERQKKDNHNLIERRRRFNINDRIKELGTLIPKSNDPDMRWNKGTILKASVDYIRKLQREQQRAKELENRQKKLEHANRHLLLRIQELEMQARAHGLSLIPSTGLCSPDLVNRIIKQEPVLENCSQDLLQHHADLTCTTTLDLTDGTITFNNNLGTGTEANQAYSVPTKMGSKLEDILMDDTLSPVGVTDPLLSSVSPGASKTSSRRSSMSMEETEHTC

[2] = cytotoxicity toward NIH3T3 fibroblasts, dose response, counter-screen, cell-based, ATP luminescence, mouse fibroblasts (AID 2010); assay type: functional;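 also: cells exposed to compound for about 90 hours before reading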
A-375 = assay: A375 melanoma cell viability reduction, dose response, counter-screen for MITF modulator project, cherry-pick samples, set 2 (AID 540335); assay type: functional, cell-based; conditions: Homo sapiens
Protein RecA = biological target: T2, Protein RecA (Mycobacterium tuberculosis, UniProt P9WHJ3); assay: Fluorescence Cell-Free Homogeneous Dose Retest to Identify Inhibitors of RecA-Intein Splicing Activity. [Related pubchem assays (depositor defined):AID2097, AID2223, AID489010, AID492950]; assay type: functional
T2 sequence (P9WHJ3 whole entry): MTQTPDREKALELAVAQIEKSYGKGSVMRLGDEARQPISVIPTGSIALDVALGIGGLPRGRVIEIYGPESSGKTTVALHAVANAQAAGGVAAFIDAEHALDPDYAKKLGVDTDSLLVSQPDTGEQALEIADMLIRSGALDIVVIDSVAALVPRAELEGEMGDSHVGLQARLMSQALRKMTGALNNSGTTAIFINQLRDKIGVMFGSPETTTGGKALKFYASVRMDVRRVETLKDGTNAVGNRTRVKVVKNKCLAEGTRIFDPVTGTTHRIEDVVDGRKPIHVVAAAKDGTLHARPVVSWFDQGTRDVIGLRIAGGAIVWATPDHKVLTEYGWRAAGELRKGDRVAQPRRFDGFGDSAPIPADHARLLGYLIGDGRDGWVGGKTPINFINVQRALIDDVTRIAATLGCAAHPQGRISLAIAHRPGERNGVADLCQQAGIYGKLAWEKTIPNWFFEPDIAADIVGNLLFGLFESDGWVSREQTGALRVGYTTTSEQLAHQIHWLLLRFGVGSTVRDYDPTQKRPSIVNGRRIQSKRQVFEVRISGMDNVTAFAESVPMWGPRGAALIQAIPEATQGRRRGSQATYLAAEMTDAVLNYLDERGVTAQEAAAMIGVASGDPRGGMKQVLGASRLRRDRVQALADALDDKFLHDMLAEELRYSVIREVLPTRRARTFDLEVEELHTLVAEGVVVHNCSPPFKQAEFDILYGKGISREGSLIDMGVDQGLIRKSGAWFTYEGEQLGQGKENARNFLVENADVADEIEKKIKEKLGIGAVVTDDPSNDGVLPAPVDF

[3] = NIH-3T3 fibroblast cytotoxicity, dose response, cytotoxicity control, cell-based, fluorescence, Alamar Blue, secondary assay (AID 2327); assay type: functional;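 also: NIH-3T3 mouse fibroblasts cultured with fluconazole at 8 µg/mL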
[4] = biological target: T3, Replicative DNA helicase DnaB (Mycobacterium tuberculosis, UniProt P9WMR3); assay: DnaB intein splicing inhibitors, dose response, biochemical, cell-free fluorescence (AID 449749); assay type: functional
T3 sequence (P9WMR3 whole entry): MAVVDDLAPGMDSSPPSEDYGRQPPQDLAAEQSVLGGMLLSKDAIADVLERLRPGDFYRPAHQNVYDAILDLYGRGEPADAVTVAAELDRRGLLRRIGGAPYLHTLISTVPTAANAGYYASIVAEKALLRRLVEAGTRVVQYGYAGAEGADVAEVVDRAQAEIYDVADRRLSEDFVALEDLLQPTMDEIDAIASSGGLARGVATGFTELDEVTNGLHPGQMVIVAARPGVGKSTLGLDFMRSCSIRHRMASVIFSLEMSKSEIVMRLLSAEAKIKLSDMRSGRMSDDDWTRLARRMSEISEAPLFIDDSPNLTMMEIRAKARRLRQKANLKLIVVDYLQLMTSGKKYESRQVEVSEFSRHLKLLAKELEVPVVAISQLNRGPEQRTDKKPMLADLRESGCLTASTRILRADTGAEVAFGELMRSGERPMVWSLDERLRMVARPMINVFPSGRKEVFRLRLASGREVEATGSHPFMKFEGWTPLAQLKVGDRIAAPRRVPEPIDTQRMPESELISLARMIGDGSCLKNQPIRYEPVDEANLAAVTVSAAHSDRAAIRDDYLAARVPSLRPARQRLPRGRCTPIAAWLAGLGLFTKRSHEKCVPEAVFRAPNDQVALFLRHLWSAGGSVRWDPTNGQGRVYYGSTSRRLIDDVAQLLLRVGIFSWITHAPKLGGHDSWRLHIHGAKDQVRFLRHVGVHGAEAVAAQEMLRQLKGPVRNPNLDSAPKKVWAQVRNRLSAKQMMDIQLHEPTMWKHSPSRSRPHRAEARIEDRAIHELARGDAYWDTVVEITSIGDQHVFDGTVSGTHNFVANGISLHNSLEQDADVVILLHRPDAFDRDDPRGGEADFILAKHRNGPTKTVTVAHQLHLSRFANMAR

[5] = C. albicans growth with fluconazole, confirmation, fluorescence, retest (AID 2467); assay type: functional, cell-based
[6] = inhibitors of intracellular T. cruzi replication, confirmation, NIH3T3 host cells, beta-gal luminescence (AID 2044); assay type: functional, cell-based;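 also: intracellular parasites grown in NIH/3T3 mouse fibroblasts as host cells; luminescent beta-galactosidase reporter signal from transgenic T. cruzi replicating inside host cells; inhibitors lower the luminescence signal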
HEK293 [7] = assay: cells; conditions: Homo sapiens
HEK293 [8] = assay: cells; conditions: Homo sapiens; remark: listed apart in the source
[9] = cytotoxicity in HEK-293T cells, dose response, cytotoxicity control for TCR NF-kB inhibitor project, luminescence, T-cell screen hits (AID 489026); assay type: functional, cell-based;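 also: cells exposed to compound about 14 hours before the viability readout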
BJ [10] = assay: cytotoxicity toward BJ-TERT fibroblasts, dose response, cell-based, RAS-independent, luminescence (AID 1933); assay type: functional; conditions: Homo sapiens
[11] = inhibitors of firefly luciferase expression or activity, dose response, H4 neuroglioma cells, luminescence (AID 1990); assay type: functional, cell-based
BJ [12] = assay: cytotoxicity toward BJ-TERT-LT-ST fibroblasts, dose response, cell-based, RAS-independent, luminescence (AID 1935); assay type: functional; conditions: Homo sapiens;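 also: BJ fibroblasts immortalized with TERT plus LT and ST oncogenes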
[13] = cytotoxicity toward DRD oncogenic fibroblasts, dose response, cell-based, non-viral oncogenic, luminescence (AID 1934); assay type: functional; conditions: Homo sapiens
[14] = inhibitors of SNCA 5'UTR-driven reporter translation, confirmation, H4 neuroglioma cells, luminescence (AID 1988); assay type: functional, cell-based
BJ [15] = assay: cytotoxicity toward Ras-transformed BJeLR fibroblasts, dose response, cell-based, alamar blue fluorescence, cherrypicked samples (AID 2631); assay type: functional; conditions: Homo sapiens;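 also: confirmatory dose-response assay in RAS-dependent BJ fibroblasts engineered with TERT, LT and ST, with cytotoxicity read by fluorescence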
BJ [16] = assay: cells; assay type: functional, cell-based; conditions: Homo sapiens
[17] = Luminescence Cell-Based Dose Response HTS to Identify Inhibitors of 5'UTR Stem-Loop Driven Prion Protein mRNA Translation in H4 Neuroglioblastoma Cells. [Related pubchem assays: 1827 (Project Summary), 1813 (Primary HTS)]; assay type: functional
[18] = ZM109 Env clade C HIV-1 fusion inhibitors, dose response, HeLa effector, CEM target cells, luciferase, cherry-pick (AID 652058); assay type: functional, cell-based
[19] = inhibitors of HIV Env-driven cell fusion, dose response, cherry-pick (AID 652057); assay type: functional, cell-based
[20] = off-target signal loss in HeLa-CEM21 co-culture – HeLa F-luc CTL cells, cherry-picked, counter-screen for HIV-1 Env fusion inhibitor project, dose response (AID 652040); assay type: functional, cell-based;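 also: potency for signal decrease marking cytotoxic or nonspecific inhibition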
[21] = inhibitors of clade B AD8 Env fusion, dose response, cell-based, cherry-pick (AID 652062); assay type: functional;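 also: luciferase signal from cell-cell fusion driven by HIV-1 clade B AD8 Env; potency is for inhibitors of fusion seen as a drop in luminescence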

## O=C(CCl)N1c2ccccc2CCc2ccccc21
[1]
  AC50: 5.54 µM (active)
[2]
  EC50: 4.26 µM (active)
A-375
  AC50: 42.7 µM (active)
Protein RecA
  EC50: 0.45 µM (active)
[3]
  EC50: 5.37 µM (inconclusive)
[4]
  AC50: 7.5 µM (active)
[5]
  EC50: 2.36 µM (active)
[6]
  EC50: 2.09 µM (active)

## Cc1ccc(S(=O)(=O)Cn2nnnc2C(C(C)C)N2CCc3ccccc3C2)cc1 (stereo not given)
HEK293 [7]
  EC50: > 59.6 µM (inactive)
HEK293 [8]
  EC50: > 59.6 µM (inactive)

## CC1=CC(C)(C)N(S(=O)(=O)c2ccc(C)cc2)c2cc(C)ccc21
[9]
  IC50: > 80 µM (inactive)
BJ [10]
  EC50: 1.34 µM (active)
[11]
  EC50: 4.98 µM (inconclusive)
BJ [12]
  EC50: 1.3 µM (inconclusive)
[13]
  EC50: 1.95 µM (active)
[14]
  EC50: 4.44 µM (inconclusive)
BJ [15]
  EC50: 0.353 µM (active)
BJ [16]
  EC50: 2.65 µM (active)
[17]
  EC50: 9.84 µM (active)

## C[C@@]12C(=O)N(CCc3c[nH]c4ccccc34)CC(=O)N1[C@H]1c3ccccc3OC[C@@H]1[C@@H]2c1ccccc1
[18]
  AC50: 2.7 µM (active)
HEK293 [7]
  EC50: > 59.7 µM (inactive)
[19]
  AC50: 2.67 µM (active)
[20]
  AC50: 3.73 µM (active)
[21]
  AC50: 4.46 µM (active)
HEK293 [8]
  EC50: > 59.7 µM (inactive)
